pIC50: −log10 of the molar value.
What was measured:
[1] = molecular target: triiodothyronine (T3) nuclear receptor; experiment: T3 nuclear receptor binding assay (rat liver nuclei, [125I]-L-T3 displacement); details: 0.3 nM [125I]-L-T3, 22° C.
Experimental: The in vitro binding to T3 nuclear receptors is determined as follows:
Rat liver nuclei and plasma membrane preparations are obtained from Sprague-Dawley (CD) rats (Charles River Labs.) by differential centrifugation as described by Emmelot at al (Methods in Enzymology 31:75, Part A, 1974) with minor modificatons. The nuclear fraction obtained from the 275 ×g pellet is further purified as generally described by Spindler et al (J. Biol. Chem. 250:4118, 1975).
The novel test compounds are assayed for binding to the nuclei by the method of Spindler et al (J. Biol. Chem. 250:4118, 1975). The nuclei are incubated at 22° C. with 0.3 nM of [^125I]-L-triiodothyronine (L-T3). Parallel incubations are conducted with tubes containing, in addition to the nuclei and radioactive L-T3, either various concentrations of the test compounds or 3 μM of nonradioactive L-T3. The latter is used as a measure of nonspecific binding. The radio-activity bound to the nuclei is determined following centrifugation of the reaction mixture at 800×g for 7 minutes and washing of the pellet obtained. The amount of [^125I]-L-T3 specifically bound is determined by subtracting the amount nonspecifically bound (radioactivity contained in the nuclear pellet following incubation with excess (3 μM) non-radioactive L-T3. The concentration of test compound which inhibits the specific binding of [^125I]-L-T3 by 50 percent (IC50) is determined graphically from the reciprocal plot of the specifically bound [^125I]-L-T3 versus the various concentrations of the test compound.

serum cholesterol [2] = experiment: Cholesterol lowering activity in the rat on a high cholesterol diet; assay type: in vivo; details: daily dose of about 20 μg/kg p.o.
Experimental: Cholesterol lowering activity is determined in the rat as follows:
Male Sprague-Dawley rats (230-250 g) (Taconic Farms) are maintained ad libitum on water and a high cholesterol diet (1.5% cholesterol and 0.5% cholic acid) for two weeks prior to and during the 7-day treatment period. Groups of animals are treated orally by gavage with the vehicle alone or with test compound for 7 consecutive days. After the last dose, animals are fasted for 18 hours and blood is collected. Blood samples are centrifuged at 2500 rpm for 10 minutes to prepare plasma for total cholesterol determination as well as LDL and HDL cholesterol concentrations. HDL values are determined after […] (Warnick and Albers, 1978). All samples are analyzed enzymatically for cholesterol with a diagnostic reagent kit (Sigma Chemical Co., St. Louis, Mo.). The analysis is performed on a Bio-Mek automated work station. LDL/VLDL fractions are precipitated in the following manner: 0.35 mL of plasma is aliquoted into Eppendorf tubes to which 12 μL of 2M manganese chloride, 11.2 μL of sodium heparin (Porcine Intestinal, 5000 units/mL), and 8.3 μL of normal saline are added. The samples are vortexed and are placed on ice for 15 minutes, then centrifuged at 4° C. for 10 minutes at 1300 rpm and the supernatant is enzymatically analyzed for cholesterol. […]

serum cholesterol [3] = experiment: Cholesterol lowering activity in normocholesterolemic dogs; assay type: in vivo; details: dog, daily dose of about 10 μg/kg p.o.
Excerpt: Cholesterol lowering activity can also be evaluated in normocholesterolemic dogs fed regular chow following the procedure described above, by administration of test compound orally for 5 days.

Lp(a) = Lp(a) lowering activity in the normolipemic cynomolgus monkey; assay type: in vivo, cynomolgus monkey (Macaca fascicularis); details: normolipemic cynomolgus monkeys, 4 week treatment, daily oral dose of 75 μg/kg
Experimental: Cholesterol and Lp(a) lowering activity can be determined in the normolipemic cynomolgus monkey as follows:
Adult male and female cynomolgus monkeys (Macaca fascicularis) weighing 3-7 kg are used. Animals are individually housed and fed a standard monkey chow diet (Purina 5047) supplemented with fresh fruits and vegetables. Each animal serves as its own control and each dosing regime is followed by a wash out period. Test compounds were dissolved in ethanol, imbibed in fruit pulp and administered orally. Animals are dosed once a day with test compounds for a treatment period varying from 8 to 28 days. Blood samples are obtained after an overnight fast at baseline and at the end of the study. […] Plasma samples are divided into aliquots and stored at −70° C. until analyzed. Plasma concentrations of total cholesterol (TC) and triglycerides (TG) are determined by enzymatic methods using commercial kits (Sigma Diagnostics). High-density lipoprotein cholesterol (HDL-C) concentration is measured after precipitation of apoB-containing lipoproteins. Since the fasting plasma of cynomolgus monkeys on a chow diet contains negligible amounts of cholesterol in very low-density lipoprotein, the low-density lipoprotein cholesterol (LDL-C) concentration is calculated by subtracting HDL-C from TC. […] Quantification of Lp(a) is not affected by apo(a) size. […]

Row | pIC50 [1] | Structure (SMILES) | serum cholesterol lowering (serum cholesterol [2]) | serum cholesterol lowering (serum cholesterol [3]) | Lp(a) levels lowered (Lp(a))
1 | ~9.77 | Cc1cc(NC(=O)C(=O)O)cc(C)c1Oc1ccc(O)c(S(=O)(=O)c2ccc(F)cc2)c1 [Example 26, N-{4-[3-(4-Fluorobenzenesulfonyl)4-hydroxyphenoxy]-3,5-dimethylphenyl}oxamic acid] | significantly lowers serum cholesterol | significantly lowers serum cholesterol | about 40%
2 | ~9.89 | Cc1cc(NC(=O)C(=O)O)cc(C)c1Oc1ccc(O)c(S(=O)(=O)c2ccc(Cl)cc2)c1 [Example 28] |  |  | 
3 | ~9.00 | Cc1cc(NC(=O)CC(=O)O)cc(C)c1Oc1ccc(O)c(S(=O)(=O)c2ccc(F)cc2)c1 [Example 35, N-{4-[3-(4-Fluorobenzenesulfonyl)-4-hydroxyphenoxy]-3,5-dimethylphenyl}malonamic acid] |  |  | 
4 | ~10.40 | O=C(O)C(=O)Nc1cc(Br)c(Oc2ccc(O)c(S(=O)(=O)c3ccc(F)cc3)c2)c(Br)c1 [Example 39, N-{3,5-Dibromo-4-[3-(4-fluorobenzenesulfonyl)-4-hydroxyphenoxy]phenyl}oxamic acid] |  |  | 
